Source: publication PMC11719397, “Monophthalates of betulinic acid and related pentacyclic triterpenes inhibit efficiently the SOS-mediated nucleotide exchange and impact PI3K/AKT signaling in oncogenic K-RAS4B proteins” (RSC Advances, 2025)

Columns and labels:
K-RAS4B^G12D [1] = biological target: T1, K-RAS4B^G12D (Homo sapiens, UniProt P01116, G12D); experiment: Surface plasmon resonance (SPR), K-RAS4B^G12D; assay type: binding; conditions: K-RAS4B^G12D alone
K-RAS4B^G12D [2] = biological target: T1, K-RAS4B^G12D; experiment: biochemical; conditions: K-RAS4B GDP/GTP exchange; eight data points, at least three determinations
K-RAS4B wild-type [3] = experiment: Nucleotide exchange assay (SOS1-mediated GDP/GTP exchange, GDP-Glo), K-RAS4B wild-type; assay type: biochemical; conditions: GDP/GTP exchange IC50 of wild-type versus G12D/G12V mutants
K-RAS4B wild-type [4] = biological target: K-RAS4B wild-type (Homo sapiens, UniProt P01116); experiment: as above; assay type: biochemical; conditions: K-RAS4B GDP/GTP exchange; eight data points, at least three determinations; (*) single determination
K-RAS4B G12V = K-RAS4B G12V (Homo sapiens, UniProt P01116, G12V); experiment: Nucleotide exchange assay (SOS1-mediated GDP/GTP exchange, GDP-Glo), K-RAS4B G12V; assay type: biochemical; conditions: eight data points, at least three determinations, (*) single determination
SOS = biological target: T2, SOS (Homo sapiens, UniProt Q07889); experiment: Surface plasmon resonance (SPR), SOS; assay type: binding; conditions: SOS alone
T2 sequence (Q07889 1-1333): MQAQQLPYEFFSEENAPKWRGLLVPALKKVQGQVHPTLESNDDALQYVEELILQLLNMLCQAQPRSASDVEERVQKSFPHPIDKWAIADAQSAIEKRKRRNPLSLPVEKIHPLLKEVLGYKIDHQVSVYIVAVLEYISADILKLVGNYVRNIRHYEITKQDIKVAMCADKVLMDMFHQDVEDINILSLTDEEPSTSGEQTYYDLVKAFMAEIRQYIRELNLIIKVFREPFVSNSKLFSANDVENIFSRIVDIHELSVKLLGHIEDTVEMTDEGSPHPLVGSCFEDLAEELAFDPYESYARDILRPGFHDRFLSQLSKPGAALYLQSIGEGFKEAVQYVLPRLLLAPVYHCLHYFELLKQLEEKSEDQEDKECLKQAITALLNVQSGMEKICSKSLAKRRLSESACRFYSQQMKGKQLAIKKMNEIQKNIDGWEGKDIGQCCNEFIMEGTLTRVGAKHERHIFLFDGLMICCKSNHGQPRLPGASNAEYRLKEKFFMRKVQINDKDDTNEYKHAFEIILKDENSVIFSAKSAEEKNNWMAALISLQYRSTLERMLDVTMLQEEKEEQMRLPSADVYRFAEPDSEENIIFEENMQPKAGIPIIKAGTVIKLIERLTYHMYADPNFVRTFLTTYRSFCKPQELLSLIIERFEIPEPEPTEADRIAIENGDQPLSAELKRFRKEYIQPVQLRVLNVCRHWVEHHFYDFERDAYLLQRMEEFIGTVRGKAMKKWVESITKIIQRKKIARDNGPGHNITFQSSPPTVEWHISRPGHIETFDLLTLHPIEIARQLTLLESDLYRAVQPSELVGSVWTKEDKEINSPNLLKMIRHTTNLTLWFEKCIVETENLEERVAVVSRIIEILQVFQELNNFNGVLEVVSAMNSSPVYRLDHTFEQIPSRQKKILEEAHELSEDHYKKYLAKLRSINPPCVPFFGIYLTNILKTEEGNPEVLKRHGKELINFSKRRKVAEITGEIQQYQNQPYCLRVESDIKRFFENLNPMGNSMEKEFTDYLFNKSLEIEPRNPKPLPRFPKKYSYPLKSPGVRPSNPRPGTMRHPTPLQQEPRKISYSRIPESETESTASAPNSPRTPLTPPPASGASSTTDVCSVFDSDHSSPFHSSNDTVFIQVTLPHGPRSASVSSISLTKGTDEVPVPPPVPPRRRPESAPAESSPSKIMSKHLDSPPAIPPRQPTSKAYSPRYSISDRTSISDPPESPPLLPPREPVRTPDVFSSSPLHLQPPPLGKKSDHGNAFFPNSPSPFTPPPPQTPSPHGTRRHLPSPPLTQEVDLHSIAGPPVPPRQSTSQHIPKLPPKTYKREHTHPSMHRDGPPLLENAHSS

T1 sequence (P01116 1-188 isoform P01116-2 G12D): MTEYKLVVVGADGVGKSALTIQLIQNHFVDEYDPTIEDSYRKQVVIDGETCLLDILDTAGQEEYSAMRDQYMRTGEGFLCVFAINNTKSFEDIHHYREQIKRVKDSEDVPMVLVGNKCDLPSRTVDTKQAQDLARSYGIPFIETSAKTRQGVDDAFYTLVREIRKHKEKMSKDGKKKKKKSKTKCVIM
Chain of K-RAS4B wild-type (Homo sapiens, UniProt P01116) (P01116 1-188 isoform P01116-2): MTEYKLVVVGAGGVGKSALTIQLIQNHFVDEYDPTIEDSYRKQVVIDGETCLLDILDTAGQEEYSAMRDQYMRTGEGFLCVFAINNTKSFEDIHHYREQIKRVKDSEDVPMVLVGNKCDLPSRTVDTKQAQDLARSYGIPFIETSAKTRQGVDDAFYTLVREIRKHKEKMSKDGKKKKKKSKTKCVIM
Chain of K-RAS4B G12V (P01116 1-188 isoform P01116-2 G12V): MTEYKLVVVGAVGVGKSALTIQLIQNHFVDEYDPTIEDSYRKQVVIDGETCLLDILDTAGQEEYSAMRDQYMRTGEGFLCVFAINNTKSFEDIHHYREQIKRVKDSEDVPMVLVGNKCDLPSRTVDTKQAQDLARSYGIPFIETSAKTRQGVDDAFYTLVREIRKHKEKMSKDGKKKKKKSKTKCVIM

C=C(C)[C@@H]1CC[C@]2(C(=O)O)CC[C@]3(C)[C@H](CC[C@@H]4[C@@]5(C)CC[C@H](OC(=O)CC(C)(C)C(=O)O)C(C)(C)[C@@H]5CC[C@]43C)[C@@H]12 [Compound 28, bevirimat, reference compound] was tested, and the Kd (K-RAS4B^G12D [1]) was > 300 µM, the IC50 (K-RAS4B^G12D [2]) was 0.59 ± 0.19 µM and the “selectivity factor, mutant versus K-RAS4B^wt” value (K-RAS4B wild-type [3]) was 3–4. For the same compound, the IC50 (K-RAS4B wild-type [4]) was 2.15 ± 0.17 µM, the IC50 (K-RAS4B G12V) was 0.61 ± 0.14 µM and the Kd (SOS) was > 1000 µM.
